Data as given in US20140349943A1, “TOPICAL FORMULATIONS OF CHEMERIN C15 PEPTIDES FOR THE TREATMENT OF DERMATOLOGICAL CONDITIONS” (priority 2011, published 2014).
Peptide text beside a SMILES is read from it.

Assays:
GPR1 = target: T1, GPR1 (Homo sapiens, UniProt P46091); experiment: PathHunter β-Arrestin assay, GPR1, agonist and antagonist mode; assay type: cell-based; conditions: for agonist activity, in words: FIG. 2A/2B
T1 construct: host or cells: CHO
T1 sequence (P46091 1-355): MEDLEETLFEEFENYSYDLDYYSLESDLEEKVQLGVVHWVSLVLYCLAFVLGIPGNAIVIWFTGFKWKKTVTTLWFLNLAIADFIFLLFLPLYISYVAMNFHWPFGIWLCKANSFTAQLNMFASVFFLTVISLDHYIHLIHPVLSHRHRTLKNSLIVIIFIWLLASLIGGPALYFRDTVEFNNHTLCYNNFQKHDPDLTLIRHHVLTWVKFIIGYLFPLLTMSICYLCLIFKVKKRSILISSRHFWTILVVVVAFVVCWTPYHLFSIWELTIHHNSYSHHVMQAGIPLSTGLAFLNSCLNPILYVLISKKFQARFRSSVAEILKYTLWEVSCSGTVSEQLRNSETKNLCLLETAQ
Procedure: (§1) The DiscoveRx PathHunter™ eXpress GPCR activity assay was employed to test agonist and antagonist activities of the chemerin peptides against the GPCRs ChemR23 and GPR1. Two assay formats were tested, the PathHunter β-Arrestin assay and the Hit Hunter cAMP Hunter assay.
(§2) The PathHunter β-Arrestin assay monitors the activation of a GPCR in a homogenous, non-imaging assay format using a technology developed by DiscoveRx called complementation, which utilizes an enzyme fragment complementation (EFC) assay with β-galactosidase (β-Gal) as the functional reporter. The enzyme is split into two complementary portions expressed as fusion proteins in the cell. The Enzyme Acceptor (EA) is fused to β-Arrestin and the ProLink donor peptide is fused to the GPCR of interest. Upon GPCR stimulation, β-Arrestin is recruited to the receptor for desensitization, bringing the two fragments of β-Gal together and allowing complementation to occur.
(§3) The assay involves CHO cell lines that express 1) a GPCR of interest (e.g. ChemR23 or GPR1) that has a fragment of the βgal enzyme fused to the C-terminus of the receptor and 2) a β-arrestin fused to the main β-gal enzyme. When the agonist binds to the receptor, β-arrestin is recruited to the receptor and the β-gal enzyme is complemented by the fragment from the GPCR thus forming a functional β-gal enzyme. A substrate is then added and luminescence is generated to detect β-arrestin recruitment.
(§4) The protocol used was a standard protocol employed by DiscoveRx PathHunter™ profiling service. […] Once it was established that the cells were healthy and growing normally, cells were passaged from flasks using cell dissociation reagent and seeded into white walled clear bottom 384-well microplates for compound profiling. For profiling, cells were seeded at a density of 5000 cells per well in a total volume of 20 μL and were allowed to adhere and recover overnight prior to compound addition.
(§5) For the agonist assay, intermediate dilution of compound stocks were generated such that 5 μL of 5× compound could be added to each well with a final DMSO concentration of 1% of total volume. For profiling compound in agonist mode, the cells were incubated in the presence of compound at 37° C. for 90 minutes.
(§6) For the antagonist assay, agonist dose curves were performed the morning of profiling to determine the EC80 value for the following antagonist testing with compounds. 5 μL of 5× agonist (i.e. chemerin) was added to each well with an equal concentration of vehicle present. EC80 agonist concentration was determined directly from agonist dose curve. For antagonist determination, cells were preincubated with antagonist followed by agonist challenge at the EC80 concentration: 4. 5 μL of 5× compound added to cells and incubated at 37° C. for 30 minutes. 5. 5 μL of 6× EC80 agonist added to cells and incubated at 37° C. for 90 minutes.
(§7) Microplates were read following signal generation with a PerkinElmer Envision™ instrument for chemiluminescent signal detection
(§8) Dose curves in the presence and absence of compound were plotted using GraphPad Prism or Activity Base. For agonist mode assays, percentage activity was calculated using the following formula: % Activity=100%×(Mean RLU of test sample−mean RLU of vehicle control)/(mean MAX RLU control ligand−mean RLU of vehicle control)). For antagonist mode assays, percentage inhibition was calculated using the following formula: % Inhibition=100%×(1−(Mean RLU of test sample−mean RLU of vehicle control)/(mean RLU of EC80 control−mean RLU of vehicle control)).

ChemR23 (CMKLR1) = target: T2, ChemR23 (CMKLR1) (Homo sapiens, UniProt Q99788); experiment: PathHunter β-Arrestin assay, ChemR23 (CMKLR1), agonist and antagonist mode; assay type: cell-based
T2 construct: host or cells: CHO
T2 sequence (Q99788 1-373): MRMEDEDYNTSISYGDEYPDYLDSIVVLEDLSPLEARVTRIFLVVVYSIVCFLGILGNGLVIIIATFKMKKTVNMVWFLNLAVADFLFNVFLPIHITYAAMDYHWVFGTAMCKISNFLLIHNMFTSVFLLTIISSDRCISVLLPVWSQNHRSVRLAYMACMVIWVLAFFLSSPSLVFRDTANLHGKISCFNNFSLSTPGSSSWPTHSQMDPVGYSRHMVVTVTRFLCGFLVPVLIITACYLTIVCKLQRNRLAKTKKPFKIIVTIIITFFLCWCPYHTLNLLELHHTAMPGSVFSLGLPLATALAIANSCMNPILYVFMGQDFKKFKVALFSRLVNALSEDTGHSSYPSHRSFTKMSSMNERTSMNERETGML
Procedure: as §1, §2, §3, §4, §5, §6, §7, §8

ChemR23 = target: T3, ChemR23 (Homo sapiens, UniProt Q99788); experiment: Hit Hunter cAMP Hunter assay, human ChemR23; assay type: cell-based
T3 sequence (Q99788 1-373): T2 sequence (Q99788 1-373)
Procedure: as §1
as §4, with “reagent buffer” for “reagent”, “10000” for “5000”, “addition. Cells were treated the following day using the protocols shown below. cAMP modulation was determined using the DiscoveRx HitHunter cAMP XS+ assay.” for “addition.”
For profiling compound in agonist mode, the cells were incubated in the presence of compound at 37° C. for 30 minutes.
EC80 agonist concentration was determined directly from agonist dose curve.
Microplates were read following signal generation with a PerkinElmer Envision™ instrument for chemiluminescent signal detection.
Dose curves in the presence and absence of compound were plotted using GraphPad Prism or Activity Base.

mChemR23 = target: T4, mChemR23 (Mus musculus, UniProt P97468); experiment: PathHunter β-Arrestin assay, mouse ChemR23; assay type: cell-based
T4 construct: host or cells: CHO (stated generally for the PathHunter assay)
T4 sequence (P97468 1-371): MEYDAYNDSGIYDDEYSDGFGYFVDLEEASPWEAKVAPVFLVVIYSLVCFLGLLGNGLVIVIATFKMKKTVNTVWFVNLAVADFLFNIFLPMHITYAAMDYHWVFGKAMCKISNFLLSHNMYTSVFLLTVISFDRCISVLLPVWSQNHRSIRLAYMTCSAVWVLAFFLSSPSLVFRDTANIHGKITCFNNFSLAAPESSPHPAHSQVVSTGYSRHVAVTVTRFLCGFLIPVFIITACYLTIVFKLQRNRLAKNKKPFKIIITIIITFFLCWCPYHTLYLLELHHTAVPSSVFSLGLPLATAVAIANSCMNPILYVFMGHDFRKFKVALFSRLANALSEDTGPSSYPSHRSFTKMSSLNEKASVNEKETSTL
Procedure: as §1, §2, §3, §4, §5
as §6, with “5 μL of 6× EC80 agonist added to cells and incubated at 37° C. for 90 minutes.” left out
as §7, §8

[1] = test system: IFNγ/LPS stimulated human macrophages; experiment: Cytokine secretion by IFNγ/LPS stimulated human macrophages (Luminex); assay type: cell-based
Text: In this example, the ability of human chemerin C15 to inhibit secretion of cytokines from activated human macrophages was examined. For this experiment, the activity of the human chemerin C15 peptide […] (SEQ ID NO: 1) was compared to that of the human chemerin C17 peptide […] (SEQ ID NO: 25). The C15 and C17 peptides were synthesized by solid phase synthesis using BOP coupling of FMOC protected amino acids with final cleavage from the resin with TFA. Peptides were purified by reverse phase C18 chromatography using a water/acetonitrile gradient.
Human macrophages were derived from human CD14+ monocytes obtained from 3 donors. On Day 1, the isolated monocytes were thawed and seeded in triplicate for each group in 1 ml RPMI 1640 GlutaMAX™ media (supplemented with 10% FBS, 100 U/ml penicillin, 100 μg/ml streptomycin, 0.05 μM mercaptoethanol, 1% NEAA and 1% sodium pyruvate) per well of a 24 well cell culture dish at a cell concentration of 5×10^5 cells/ml. M-CSF was added to each well to give a final concentration of 25 ng/ml. Cells were grown for 7 days at 37° C. with 5% CO2 to differentiate the cells into macrophages. Media and M-CSF were replaced after 4 days.
Following differentiation, the media containing M-CSF was removed. The cells were washed and vehicle control, dexamethasone, C15 or C17 were added to the appropriate wells. The test peptides were dissolved in 50% DMSO/water prior to addition. C-15 (MW 1669; 16.7 mg/ml) was added to a final concentration of […] and C17 (MW 1904; 19.0 mg/ml) was added to a final concentration of 1 μM. Dexamethasone was added to a final concentration of 1 μM. Following addition to the wells, the plates were incubated at 37° C. with 5% CO2 for 1 hour. An equal volume of complete media was added to the non-treated wells. Control or test treatments were maintained at the correct concentration throughout the assay.
IFNγ (final concentration 20 ng/ml) was then added to the appropriate wells. Following IFNγ addition, the plates were incubated at 37° C. with 5% CO2 for 4 hours. The concentration of vehicle control, test treatments or dexamethasone was maintained during IFNγ stimulation. LPS (final concentration 10 ng/ml) was then added to the appropriate wells. Following LPS addition, the plates were incubated at 37° C. with 5% CO2 for 15 hours. After 6 hours, ˜60 μl of culture supernatant was removed from all wells and stored at −80° C. for analysis. The concentration of vehicle control, test treatments or dexamethasone was maintained during LPS stimulation.
At 15 hours post LPS stimulation, the remaining cell culture supernatant was harvested and stored at −80° C. until assayed. The concentration of vehicle control, test treatments or dexamethasone was maintained until culture termination.
Cell culture supernatants taken at 6 hours and 15 hours post LPS addition were assayed for the production of RANTES, TNFα, IL-1β, IL-6, IL-10, IL-12p40 (subunit common to IL-12 and IL-23) and IL-15 (negative control) using Luminex® technology (Procarta human cytokine kit; Panomics) following the manufacturer's instructions.
In this experiment, the importance of the FYFP motif (SEQ ID NO: 2) in the human chemerin C15 peptide on anti-inflammatory activity was examined. The ability of the human chemerin C15 peptide […] (SEQ ID NO: 1) was compared to that of a substituted chemerin C15 peptide having the amino acid sequence […] (SEQ ID NO: 27), where the second phenylalanine in the peptide is modified to alanine. The experiment was performed as described in Example 1. 0.1 pM 0.5 pM and 1 pM concentrations of the C15 and C15 mutant peptides were tested. Cytokine expression was determined as described in Example 1.

psoriasis patients = conditions: cited from earlier work
[2] = Example 3, 0.1 pM 0.5 pM and 1 pM tested, FIG. 3

For `C[C@H](N)C(=O)NCC(=O)N[C@@H](CCC(=O)O)C(=O)N[C@@H](CC(=O)O)C(=O)N1CCC[C@H]1C(=O)N[C@@H](Cc1c[nH]cn1)C(=O)N[C@@H](CO)C(=O)N[C@@H](Cc1ccccc1)C(=O)N[C@@H](Cc1ccc(O)cc1)C(=O)N[C@@H](Cc1ccccc1)C(=O)N1CCC[C@H]1C(=O)NCC(=O)N[C@@H](CCC(N)=O)C(=O)N[C@@H](Cc1ccccc1)C(=O)N[C@@H](C)C(=O)N[C@@H](Cc1ccccc1)C(=O)O` [C16 (human)] (H-AGEDPHSFYFPGQFAF-OH; N-terminus and C-terminus assumed), the IC50 (GPR1) was over 10 µM, the “agonist activity, in words” value (GPR1; GPR1) was “exhibited agonist activity” and the “Rank Order” value (GPR1; GPR1, agonist) was 2. The “% Max Activity” value (GPR1; GPR1, agonist mode) was 87.9%, the “% Max Inhibition” value (GPR1; GPR1, antagonist mode, chemerin at EC80) was 0% and the IC50 (ChemR23 (CMKLR1)) was over 10 µM. The “Rank Order” value (ChemR23 (CMKLR1); ChemR23, agonist) was 1, the “% Max Activity” value (ChemR23 (CMKLR1); ChemR23, agonist mode) was 98.6% and the “% Max Inhibition” value (ChemR23 (CMKLR1); ChemR23, antagonist mode, chemerin at EC80) was 0%. The “agonist activity, in words” value (ChemR23 (CMKLR1); human ChemR23, FIG. 2A/2B) was “exhibited agonist activity”, the IC50 (ChemR23) was over 10 µM and the IC50 (mChemR23) was over 10 µM.

In the case of `C[C@@H]1C[C@H]2[C@@H]3CCC4=CC(=O)C=C[C@]4(C)[C@@]3(F)[C@@H](O)C[C@]2(C)[C@@]1(O)C(=O)CO` [Dexamethasone], the “inhibition of IL-1β secretion” value ([1]; 1 μM dosage) is reported as “approximately 30%”, the “inhibition of RANTES secretion” value ([1]; 1 μM dosage) is reported as about 50% and the inhibition at 1 µM ([1]; Homo sapiens, Macrophage, dexamethasone 1 μM, read-out: inhibition of the production of IL-10) is reported as about 70%.

With “AGEDPHGYFAPGQFA [mutant C15 polypeptide]” the “percent inhibition of RANTES expression” value [1, 2] was “unable to inhibit expression” and the “percent inhibition of TNFα expression” value [1, 2] was “unable to inhibit expression”.

For “Stelara: approved systemic mono-clonal antibody for psoriasis, clears IL-23”, the “time of maximal serum concentrations” value (psoriasis patients; post-injection) is listed as 5 days and the “improvement in PASI score” value (psoriasis patients; within two weeks after a single dose) is listed as 50%.

With “hrChemerin: chemerin protein, control agonist of ChemR23 and GPR1” the “agonist activity, in words” value (GPR1; GPR1) was “potent agonist activity” and the EC50 (mChemR23; Arrestin, Agonist, mChemR23, read-out: RC50 (uM), EC50) was 0.00154 µM.
